ChEMBL document CHEMBL4364250, “Improvement of Asparagine Ethylenediamines as Anti-malarial Plasmodium-Selective Proteasome Inhibitors” (J Med Chem, 2019)
The source made the active and inactive calls. The calls are words filed in the database; no cut-off is given here.

How the values were obtained:
[1] = tested on: beta5 subunit of human 20S immunoproteasome; test: Selectivity ratio of IC50 for human beta5 20S immunoproteasome to IC50 for Plasmodium falciparum 20S proteasome beta5 subunit; assay type: toxicity; details: read-out: Ratio IC50
[2] = tested on: beta5 subunit of human 20S constitutive proteasome; test: Selectivity ratio of IC50 for human beta5 20S constitutive proteasome to IC50 for Plasmodium falciparum 20S proteasome beta5 subunit; assay type: toxicity; details: read-out: Ratio IC50
[3] = tested on: Plasmodium falciparum; test: Inhibition of MV151 binding to Plasmodium falciparum 20S proteasome beta5 subunit preincubated for 1 hr followed by MV151 addition and measured after 1 hr by fluorescence assay
[4] = tested on: Plasmodium falciparum; test: Antimalarial activity against erythrocytic stage of Plasmodium falciparum Dd2 measured after 72 hrs by SYBR green dye based fluorescence assay; assay type: functional, organism-based; details: Dd2, 72 h
[5] = Clearance in human liver microsomes; assay type: ADME, Microsome; details: read-out: CLH
[6] = Clearance in rat liver microsomes; assay type: ADME, Microsome; details: read-out: CLH
[7] = tested on: Plasmodium falciparum; test: Resistance index, ratio of EC50 for erythrocytic stage of Plasmodium falciparum Dd2 harboring 20S beta5 proteasome A49S mutant to EC50 erythrocytic stage of Plasmodium falciparum Dd2; assay type: functional
[8] = Permeability of the compound at pH 7.4 by PAMPA; assay type: ADME; details: read-out: permeability
[9] = tested on: HepG2; test: Cytotoxicity against human HepG2 cells; assay type: cell-based
[10] = tested on: Plasmodium falciparum; test: Resistance index, ratio of EC50 for erythrocytic stage of Plasmodium falciparum Dd2 harboring 20S beta6 proteasome A117D mutant to EC50 erythrocytic stage of Plasmodium falciparum Dd2
[11] = tested on: Plasmodium falciparum; test: Antimalarial activity against erythrocytic stage of Plasmodium falciparum Dd2 harboring 20S beta5 proteasome A49S mutant measured after 72 hrs by SYBR green dye based fluorescence assay; assay type: functional, organism-based; details: Dd2, 72 h
[12] = tested on: Plasmodium falciparum; test: microbe, parasite or virus in culture; details: 72 h
Description: Antimalarial activity against Plasmodium falciparum clinical isolate measured after 72 hrs by SYBR green dye based fluorescence assay

[13] = tested on: Plasmodium falciparum; test: Antimalarial activity against erythrocytic stage of Plasmodium falciparum Dd2 harboring 20S beta2 proteasome A117D mutant measured after 72 hrs by SYBR green dye based fluorescence assay; assay type: functional, organism-based; details: Dd2, 72 h
[14] = target: T1, Proteasome Macropain subunit MB1 (Homo sapiens, UniProt P28074); test: Inhibition of human beta5 20S constitutive proteasome using suc-LLVY-AMC as substrate; details: for inhibition (INH): human
T1 sequence (P28074 whole entry): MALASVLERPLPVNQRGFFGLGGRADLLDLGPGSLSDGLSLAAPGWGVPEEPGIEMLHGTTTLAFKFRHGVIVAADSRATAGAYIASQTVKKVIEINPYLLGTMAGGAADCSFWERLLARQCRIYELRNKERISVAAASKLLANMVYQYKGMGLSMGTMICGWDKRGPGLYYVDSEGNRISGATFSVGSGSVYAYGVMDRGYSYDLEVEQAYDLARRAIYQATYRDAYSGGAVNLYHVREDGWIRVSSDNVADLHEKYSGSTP

[15] = target: T2, Proteasome subunit beta type-8 (Homo sapiens, UniProt P28062); test: Inhibition of human beta5 20S immunoproteasome using Ac-ANW-AMC as substrate; details: for inhibition (INH): human
T2 sequence (P28062 whole entry): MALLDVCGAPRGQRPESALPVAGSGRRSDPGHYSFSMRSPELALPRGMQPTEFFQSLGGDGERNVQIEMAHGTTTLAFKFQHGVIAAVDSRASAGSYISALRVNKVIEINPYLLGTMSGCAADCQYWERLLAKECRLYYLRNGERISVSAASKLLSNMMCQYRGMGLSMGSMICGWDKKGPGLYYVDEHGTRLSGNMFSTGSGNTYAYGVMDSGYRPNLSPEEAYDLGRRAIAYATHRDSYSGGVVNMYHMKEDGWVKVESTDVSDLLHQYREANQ

[16] = tested on: Plasmodium falciparum; test: (§1) Inhibition of Plasmodium falciparum 20S proteasome beta5 subunit using suc-LLVY-AMC as substrate in presence of beta2 inhibitor WLW-VS
[17] = as §1
[18] = tested on: Plasmodium falciparum; test: Antimalarial activity against erythrocytic stage of Plasmodium falciparum 3D7 measured after 72 hrs by SYBR green dye based fluorescence assay; assay type: functional, organism-based; details: 3D7, 72 h
[19] = Clearance in mouse liver microsomes; assay type: ADME, Microsome; details: read-out: CLH
[20] = tested on: Karpas-1106P; test: Cytotoxicity against human KARPAS1106P cells; assay type: cell-based
[21] = tested on: Plasmodium falciparum; test: Inhibition of MV151 binding to Plasmodium falciparum 20S proteasome beta2 subunit preincubated for 1 hr followed by MV151 addition and measured after 1 hr by fluorescence assay
[22] = tested on: Plasmodium falciparum; test: Inhibition of MV151 binding to Plasmodium falciparum 20S proteasome beta1 subunit preincubated for 1 hr followed by MV151 addition and measured after 1 hr by fluorescence assay
[23] = tested on: Plasmodium falciparum; test: Inhibition of MV151 binding to Plasmodium falciparum 20S proteasome beta5 subunit A49S mutant at 1.2 to 33.3 uM preincubated for 1 hr followed by MV151 addition and measured after 1 hr by fluorescence assay
[24] = tested on: Plasmodium falciparum; test: Antimalarial activity against erythrocytic stage of Plasmodium falciparum Dd2 measured after 72 hrs in presence of 20S beta2 inhibitor WLW-VS by SYBR green dye based fluorescence assay; assay type: functional, organism-based

In the case of `C#Cc1cccc(C(=O)NCCNC(=O)[C@H](CC(=O)NC(C)(C)C)NS(=O)(=O)c2ccc(C)cc2)c1`, the selectivity ratio [1] is reported as 24, the selectivity ratio [2] is reported as 91 and the inhibition [3] is reported as “Dose-dependent effect”. The EC50 [4] was 3.3 nM, the microsomal CLint [5] was 61 µL/min/mg and the microsomal CLint [6] was 61 µL/min/mg. For the same compound, the “Ratio EC50” value [7] was 152, the Papp [8] was 20.3 ×10⁻⁶ cm/s and the EC50 [9] was > 11000 nM. The “Ratio EC50” value [10] was 19, the EC50 [11] was 502 nM and the EC50 [12] was 7.1 nM. For the same compound, the EC50 [13] was 61.9 nM, the IC50 [14] was 430 nM and the “inhibition (INH)” value [14] was “Dose-dependent effect”. For the same compound, the IC50 [15] was 112 nM, the “inhibition (INH)” value [15] was “Dose-dependent effect” and the inhibition [16] was “Dose-dependent effect”. It also gave an IC50 [17] of 4.7 nM, an EC50 [18] of 3.1 nM and a microsomal CLint [19] of 97 µL/min/mg. For the same compound, the EC50 [20] was > 11100 nM.

In the case of `Cc1ccc(S(=O)(=O)N[C@@H](CC(=O)NC(C)(C)C)C(=O)NCCNC(=O)c2ccccc2F)cc1`, the selectivity ratio [1] is reported as 5.3, the selectivity ratio [2] is reported as 36 and the inhibition [21] is reported as “inactive”. The microsomal CLint [5] was 141 µL/min/mg, the microsomal CLint [6] was 124 µL/min/mg and the inhibition [22] was “inactive”. For the same compound, the Papp [8] was 10.5 ×10⁻⁶ cm/s, the EC50 [9] was > 11000 nM and the IC50 [14] was 1140 nM. For the same compound, the IC50 [15] was 169 nM, the IC50 [17] was 32 nM and the EC50 [18] was 7.5 nM. For the same compound, the microsomal CLint [19] was 141 µL/min/mg and the EC50 [20] was > 11100 nM.

With `Cc1ccc(S(=O)(=O)N[C@@H](CC(=O)NC(C)(C)C)C(=O)NCCNC(=O)c2ccccc2)cc1` the selectivity ratio [1] was 4.8, the selectivity ratio [2] was 68 and the EC50 [4] was 7.7 nM. The microsomal CLint [5] was 122 µL/min/mg, the inhibition [23] was “Active” and the microsomal CLint [6] was 66 µL/min/mg. For the same compound, the “Ratio EC50” value [7] was 17, the Papp [8] was 13.7 ×10⁻⁶ cm/s and the EC50 [9] was > 11000 nM. The “Ratio EC50” value [10] was 14, the EC50 [11] was 135 nM and the EC50 [13] was 111 nM. For the same compound, the Activity [24] was “Active”, the IC50 [14] was 1410 nM and the IC50 [15] was 100 nM. The IC50 [17] was 20.8 nM, the EC50 [18] was 8.4 nM and the microsomal CLint [19] was 64 µL/min/mg. The EC50 [20] was > 11100 nM.

In the case of `Cc1ccc(S(=O)(=O)N[C@@H](CC(=O)NC(C)(C)C)C(=O)NCCNC(=O)c2cc(C)ccc2F)cc1`, the selectivity ratio [1] is reported as 19, the selectivity ratio [2] is reported as 581 and the EC50 [9] is reported as > 11000 nM. The IC50 [14] was 12000 nM, the “inhibition (INH)” value [14] was “Dose-dependent effect” and the IC50 [15] was 384 nM. For the same compound, the “inhibition (INH)” value [15] was “Dose-dependent effect”, the inhibition [16] was “Dose-dependent effect” and the IC50 [17] was 20.7 nM. The EC50 [18] was 13.9 nM and the EC50 [20] was > 11100 nM.
